molecular target: T1, human TRPC6 (Homo sapiens, UniProt Q9Y210); assay: TRPC6 calcium flux assay (FLIPR, OAG-stimulated calcium influx); type: cell-based; conditions: HEK293 cells stably transfected with human TRPC6, read-out: hTRPC6 Potency
T1 construct: expressed in transfected cells
T1 sequence (Q9Y210 1-931): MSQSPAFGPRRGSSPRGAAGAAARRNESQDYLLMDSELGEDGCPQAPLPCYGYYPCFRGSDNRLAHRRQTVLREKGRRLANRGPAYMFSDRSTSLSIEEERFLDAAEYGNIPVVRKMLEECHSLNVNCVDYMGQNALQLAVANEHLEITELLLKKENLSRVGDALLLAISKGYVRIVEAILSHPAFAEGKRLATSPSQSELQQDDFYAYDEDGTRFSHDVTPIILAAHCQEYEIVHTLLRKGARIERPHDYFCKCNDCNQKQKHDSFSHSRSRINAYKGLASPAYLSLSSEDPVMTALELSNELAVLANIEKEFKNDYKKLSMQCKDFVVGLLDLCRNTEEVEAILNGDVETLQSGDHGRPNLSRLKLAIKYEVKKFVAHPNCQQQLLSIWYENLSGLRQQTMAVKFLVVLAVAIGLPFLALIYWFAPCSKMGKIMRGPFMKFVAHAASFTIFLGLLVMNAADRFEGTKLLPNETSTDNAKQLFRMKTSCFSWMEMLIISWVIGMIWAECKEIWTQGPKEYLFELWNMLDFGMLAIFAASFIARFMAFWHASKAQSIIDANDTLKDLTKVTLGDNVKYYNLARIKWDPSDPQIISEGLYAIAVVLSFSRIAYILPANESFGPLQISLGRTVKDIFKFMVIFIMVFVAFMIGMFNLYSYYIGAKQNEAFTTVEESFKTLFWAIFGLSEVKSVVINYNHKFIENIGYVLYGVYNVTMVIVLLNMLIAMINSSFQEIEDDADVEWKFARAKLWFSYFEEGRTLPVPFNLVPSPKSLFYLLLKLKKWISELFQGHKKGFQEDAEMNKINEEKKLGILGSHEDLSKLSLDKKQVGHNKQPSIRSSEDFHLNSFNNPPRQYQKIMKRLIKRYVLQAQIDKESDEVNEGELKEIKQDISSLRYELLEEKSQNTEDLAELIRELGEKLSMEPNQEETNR
In short: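 HEK293 cells stably expressing human TRPC6, loaded with calcium dye 90–120 min at RT, then given compound for 25 min before OAG (50 uM final, 0.5% DMSO) in HEPES buffer pH 7.2 with 2 mM CaCl2. Background-subtracted FLIPR peak over 180 s normalized to OAG vs buffer; IC50 from dose plot.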

IC50 [nM]	SMILES
> 3750	CN(CC(F)(F)F)C(=O)Cn1c(N2CC[C@@H]3OCCN[C@H]3C2)nc2cc(F)ccc21 [Example 493, 2-(5-fluoro-2-((4aS,8aS)-hexahydro-2H-pyrido[4,3-b][1,4]oxazin-6(5H)-yl)-1H-benzo[d]imidazol-1-yl)-N-methyl-N-(2,2,2-trifluoroethyl)acetamide]
12.6	N[C@@H]1CN(c2nc3cc(F)ccc3n2Cc2ncc(Cl)cn2)CC[C@H]1O [Example 494, (3R,4R)-3-amino-1-(1-((5-chloropyrimidin-2-yl)methyl)-5-fluoro-1H-benzo[d]imidazol-2-yl)piperidin-4-ol]
12.7	N[C@@H]1CN(c2nc3ccc(Cl)cc3n2CC(=O)N2CCOCC2)CC[C@H]1F [Example 495, 2-(2-((3R,4R)-3-amino-4-fluoropiperidin-1-yl)-6-chloro-1H-benzo[d]imidazol-1-yl)-1-morpholinoethanone]
94	N[C@@H]1CN(c2nc3cc(Cl)ccc3n2CC(=O)N2CCOCC2)CC[C@H]1F [Example 497, -(2-((3R,4R)-3-amino-4-fluoropiperidin-1-yl)-5-chloro-1H-benzo[d]imidazol-1-yl)-1-morpholinoethanone]
1.88	C[C@H](c1ncc(Cl)cn1)n1c(N2CC[C@@H](F)[C@H](N)C2)nc2cc(F)c(F)cc21 [Example 498, (3R,4R)-1-(1-((R)-1-(5-chloropyrimidin-2-yl)ethyl)-5,6-difluoro-1H-benzo[d]imidazol-2-yl)-4-fluoropiperidin-3-amine]
2.58	N#Cc1ccc(Cn2c(N3CC[C@@H](F)[C@H](N)C3)nc3ncc(C(F)(F)F)cc32)nc1 [Example 499, 6-((2-((3R,4R)-3-amino-4-fluoropiperidin-1-yl)-6-(trifluoromethyl)-1H-imidazo[4,5-b]pyridin-1-yl)methyl)nicotinonitrile]
5.15	CN(CC(F)(F)F)C(=O)Cn1c(N2CC[C@@H](F)[C@H](N)C2)nc2cc(F)c(F)cc21 [Example 500, 2-(2-((3R,4R)-3-amino-4-fluoropiperidin-1-yl)-5,6-difluoro-1H-benzo[d]imidazol-1-yl)-N-methyl-N-(2,2,2-trifluoroethyl)acetamide]
6.21	CN(C(=O)Cn1c(N2CC[C@@H](F)[C@H](N)C2)nc2cc(F)c(F)cc21)c1nccs1 [Example 501, 2-(2-((3R,4R)-3-amino-4-fluoropiperidin-1-yl)-5,6-difluoro-1H-benzo[d]imidazol-1-yl)-N-methyl-N-(thiazol-2-yl)acetamide]
9.09	CN(C)C(=O)Cn1c(N2CC[C@@H](F)[C@H](N)C2)nc2ccc(Cl)cc21 [Example 502, 2-(2-((3R,4R)-3-amino-4-fluoropiperidin-1-yl)-6-chloro-1H-benzo[d]imidazol-1-yl)-N,N-dimethylacetamide]
25.6	N[C@@H]1CN(c2nc3ccc(F)cc3n2CC(=O)N2CCC2)CC[C@H]1F [Example 503, 2-(2-((3R,4R)-3-amino-4-fluoropiperidin-1-yl)-6-fluoro-1H-benzo[d]imidazol-1-yl)-1-(azetidin-1-yl)ethan-1-one]
43.2	N[C@@H]1CN(c2nc3cc(F)c(F)cc3n2CC(=O)N2CCc3sccc3C2)CC[C@H]1F [Example 505, 2-(2-((3R,4R)-3-amino-4-fluoropiperidin-1-yl)-5,6-difluoro-1H-benzo[d]imidazol-1-yl)-1-(6,7-dihydrothieno[3,2-c]pyridin-5(4H)-yl)ethan-1-one]
76.6	CN(C)C(=O)Cn1c(N2CC[C@@H](F)[C@H](N)C2)nc2cc(Cl)ccc21 [Example 506, 2-(2-((3R,4R)-3-amino-4-fluoropiperidin-1-yl)-5-chloro-1H-benzo[d]imidazol-1-yl)-N,N-dimethylacetamide]
131	COc1cc(F)cc2nc(N3CC[C@@H](F)[C@H](N)C3)n(CC(=O)N(C)CC(F)(F)F)c12 [Example 509, 2-(2-((3R,4R)-3-amino-4-fluoropiperidin-1-yl)-5-fluoro-7-methoxy-1H-benzo[d]imidazol-1-yl)-N-methyl-N-(2,2,2-trifluoroethyl)acetamide]
139	N[C@@H]1CN(c2nc3cc(F)c(F)cc3n2CC(=O)N2CCCCCCC2)CC[C@H]1F [Example 510, 2-(2-((3R,4R)-3-amino-4-fluoropiperidin-1-yl)-5,6-difluoro-1H-benzo[d]imidazol-1-yl)-1-(azocan-1-yl)ethan-1-one]
158	N[C@@H]1CN(c2nc3cc(F)c(F)cc3n2CC(=O)N2CCN(c3cnccn3)CC2)CC[C@H]1F [Example 511, 2-(2-((3R,4R)-3-amino-4-fluoropiperidin-1-yl)-5,6-difluoro-1H-benzo[d]imidazol-1-yl)-1-(4-(pyrazin-2-yl)piperazin-1-yl)ethan-1-one]
162	COC(=O)C1CCN(C(=O)Cn2c(N3CC[C@@H](F)[C@H](N)C3)nc3cc(F)c(F)cc32)CC1 [Example 512, methyl 1-(2-(2-((3R,4R)-3-amino-4-fluoropiperidin-1-yl)-5,6-difluoro-1H-benzo[d]imidazol-1-yl)acetyl)piperidine-4-carboxylate]
183	CCC1CN(C(=O)Cn2c(N3CC[C@@H](F)[C@H](N)C3)nc3cc(F)c(F)cc32)CCO1 (stereo partly drawn) [Example 513, 2-(2-((3R,4R)-3-amino-4-fluoropiperidin-1-yl)-5,6-difluoro-1H-benzo[d]imidazol-1-yl)-1-(2-ethylmorpholino)ethan-1-one]
185	N[C@@H]1CN(c2nc3cc(F)ccc3n2CC(=O)N2CCC2)CC[C@H]1F [Example 514, 2-(2-((3R,4R)-3-amino-4-fluoropiperidin-1-yl)-5-fluoro-1H-benzo[d]imidazol-1-yl)-1-(azetidin-1-yl)ethan-1-one]
197	CC1CCN(C(=O)Cn2c(N3CC[C@@H](F)[C@H](N)C3)nc3cc(F)c(F)cc32)CC1 [Example 516, 2-(2-((3R,4R)-3-amino-4-fluoropiperidin-1-yl)-5,6-difluoro-1H-benzo[d]imidazol-1-yl)-1-(4-methylpiperidin-1-yl)ethan-1-one]
400	CCC1CN(C(=O)Cn2c(N3CC[C@@H](F)[C@H](N)C3)nc3cc(F)c(F)cc32)CCO1 (stereo partly drawn) [Example 518, 2-(2-((3R,4R)-3-amino-4-fluoropiperidin-1-yl)-5,6-difluoro-1H-benzo[d]imidazol-1-yl)-1-(2-ethylmorpholino)ethan-1-one]
476	N#Cc1ccc(Cn2c(N3CC[C@@H](F)[C@H](N)C3)nc3cc(C(F)(F)F)cnc32)nc1 [Example 519, 6-((2-((3R,4R)-3-amino-4-fluoropiperidin-1-yl)-6-(trifluoromethyl)-3H-imidazo[4,5-b]pyridin-3-yl)methyl)nicotinonitrile]
686	N[C@@H]1CN(c2nc3ccccc3n2CC(=O)N2CCC2)CC[C@H]1F [Example 520, 2-(2-((3R,4R)-3-amino-4-fluoropiperidin-1-yl)-1H-benzo[d]imidazol-1-yl)-1-(azetidin-1-yl)ethan-1-one]
757	NC(=O)C1CCCCN1C(=O)Cn1c(N2CC[C@@H](F)[C@H](N)C2)nc2cc(F)c(F)cc21 (stereo partly drawn) [Example 521]
1490	COc1ccnc(Cn2c(N3CC[C@@H](F)[C@H](N)C3)nc3cc(F)ccc32)c1 [Example 524, (3R,4R)-4-fluoro-1-(5-fluoro-1-((4-methoxypyridin-2-yl)methyl)-1H-benzo[d]imidazol-2-yl)piperidin-3-amine]

— US11332459B2 (TEIJIN PHARMA LIMITED, priority 2017, dated 2022)
